Measured values reported in US11472799B2, “Serine threonine kinase (AKT) degradation / disruption compounds and methods of use” (Icahn School of Medicine at Mount Sinai, priority 2018, dated 2022).

Tested on: AKT
Assay: Western blot of AKT protein levels and downstream signaling in BT474 cells
Format: cell-based, human
Conditions: Western blot (FIGS. 1, 3, 4)
Description: PC-3, U87MG, HCC1143, MDA-MB-231, MDA-MB-468, BT474 and MCF-7 cell lines were purchased from ATCC. Cell lines were regularly tested in the lab for mycoplasma. All cells were cultured at 37° C. and 5% CO2. PC-3, U87MG, MDA-MB-231, MCF-7 and BT474 cells were cultured in 1×DMEM (Corning, 10-013-CV) with 10% fetal bovine serum (Atlanta Biologicals S11150) and 1× Penicillin/Streptomycin. HCC1143 cells were cultured in RPMI (Corning, 10-040-CV) medium with 10% fetal bovine serum (Atlanta Biologicals S11150) and 1× Penicillin/Streptomycin. Cells were split using 0.05% or 0.25% trypsin (Corning 25-051-Cl or 25-053-Cl, respectively) before they reached full confluence and media was changed every 3-4 days. Cells were treated with compounds individually at different concentrations for 24 hrs. Cells were treated with DMSO, VHL, or PML alone as controls.
Cells were lysed in 2× sample buffer (125 mM Tris-HCl at pH 6.8, 10% βME, 2% SDS, 20% glycerol, 0.05% Bromophenol Blue, 8 M urea). Protein lysates were loaded into 4-12% Bis-Tris gels and resolved by electrophoresis. Samples were then blotted on PVDF membrane (Millipore IPVH00010) using the wet transfer technique (Invitrogen). Membranes were blocked in 5% milk-TBST for 1 hour, washed in TBST for 10 min, and incubated in primary antibody in 5% milk-TBST or 5% BSA-TBST at 4° C. for 16 h. Membranes were rinsed (3×6 min) in TBST and incubated in horseradish peroxidase-conjugated secondary antibodies in 5% milk-TBST for 1 hour and rinsed again in TBST (3×6 min). Membranes were visualized using the chemiluminescence system (Thermo 34080, 37075) on autoradiography film (Denville E3018). Primary Antibodies: R-actin (Sigma A5316), p-AKT (Ser473 CST-9721), total AKT (CST-9272), p-S6 (Ser240/244, CST-5364), p-PRAS40 (Thr246, CST-2997). Secondary Antibodies: Mouse (Thermo 31432), Rabbit (Thermo 31460).

| SMILES | suppression of AKT protein level and AKT activity |
| --- | --- |
| Cc1ncsc1-c1ccc(CNC(=O)[C@@H]2C[C@@H](O)CN2C(=O)[C@@H](NC(=O)CCCCCCCCCNC(=O)CCNC[C@@H](C(=O)N2CCN(c3ncnc4c3[C@H](C)C[C@H]4O)CC2)c2ccc(Cl)cc2)C(C)(C)C)cc1 [XF038-165A, (2S,4R)-1-((S)-2-(10-(3-(((S)-2-(4-chlorophenyl)-3-(4-((5R,7R)-7-hydroxy-5-methyl-6,7-dihydro-5H-cyclopenta[d]pyrimidin-4-yl)piperazin-1-yl)-3-oxopropyl)amino)propanamido)decanamido)-3,3-dimethylbutanoyl)-4-hydroxy-N-(4-(4-methylthiazol-5-yl)benzyl)pyrrolidine-2-carboxamide] | effective in suppressing both AKT protein level and AKT activity |
| C[C@@H]1C[C@@H](O)c2ncnc(N3CCN(C(=O)[C@H](CNCCC(=O)NCCOCCOCCOCCOCCNc4cccc5c4C(=O)N(C4CCC(=O)NC4=O)C5=O)c4ccc(Cl)cc4)CC3)c21 (stereo partly drawn) [XF038-176A, 3-(((S)-2-(4-chlorophenyl)-3-(4-((5R,7R)-7-hydroxy-5-methyl-6,7-dihydro-5H-cyclopenta[d]pyrimidin-4-yl)piperazin-1-yl)-3-oxopropyl)amino)-N-(14-((2-(2,6-dioxopiperidin-3-yl)-1,3-dioxoisoindolin-4-yl)amino)-3,6,9,12-tetraoxatetradecyl)propanamide] | effective in suppressing both AKT protein level and AKT activity |
| C[C@@H]1C[C@@H](O)c2ncnc(N3CCN(C(=O)[C@H](CNCCC(=O)NCCOCCOCCOCCOCCOCCNc4cccc5c4C(=O)N(C4CCC(=O)NC4=O)C5=O)c4ccc(Cl)cc4)CC3)c21 (stereo partly drawn) [XF038-177A, 3-(((S)-2-(4-chlorophenyl)-3-(4-((5R,7R)-7-hydroxy-5-methyl-6,7-dihydro-5H-cyclopenta[d]pyrimidin-4-yl)piperazin-1-yl)-3-oxopropyl)amino)-N-(17-((2-(2,6-dioxopiperidin-3-yl)-1,3-dioxoisoindolin-4-yl)amino)-3,6,9,12,15-pentaoxaheptadecyl) propanamide] | effective in suppressing both AKT protein level and AKT activity |
| C[C@@H]1C[C@@H](O)c2ncnc(N3CCN(C(=O)[C@H](CNCCC(=O)NCCCCCCNc4cccc5c4C(=O)N(C4CCC(=O)NC4=O)C5=O)c4ccc(Cl)cc4)CC3)c21 (stereo partly drawn) [XF042-168, 3-(((S)-2-(4-chlorophenyl)-3-(4-((5R,7R)-7-hydroxy-5-methyl-6,7-dihydro-5H-cyclopenta[d]pyrimidin-4-yl)piperazin-1-yl)-3-oxopropyl)amino)-N-(6-((2-(2,6-dioxopiperidin-3-yl)-1,3-dioxoisoindolin-4-yl)amino)hexyl)propanamide] | effective in suppressing both AKT protein level and AKT activity |
| C[C@@H]1C[C@@H](O)c2ncnc(N3CCN(C(=O)[C@H](CNCCNC(=O)CCOCCOCCNc4cccc5c4C(=O)N(C4CCC(=O)NC4=O)C5=O)c4ccc(Cl)cc4)CC3)c21 (stereo partly drawn) [XF048-1, N-(2-(((N)-2-(4-chlorophenyl)-3-(4-((5R,7R)-7-hydroxy-5-methyl-6,7-dihydro-5H-cyclopenta[d]pyrimidin-4-yl)piperazin-1-yl)-3-oxopropyl)amino)ethyl)-3-(2-(2-((2-(2,6-dioxopiperidin-3-yl)-1,3-dioxoisoindolin-4-yl)amino)ethoxy)ethoxy) propanamide] | effective in suppressing both AKT protein level and AKT activity |
| C[C@@H]1C[C@@H](O)c2ncnc(N3CCN(C(=O)[C@H](CNCCNC(=O)CCOCCOCCOCCNc4cccc5c4C(=O)N(C4CCC(=O)NC4=O)C5=O)c4ccc(Cl)cc4)CC3)c21 (stereo partly drawn) [XF048-2, N-(2-(((S)-2-(4-chlorophenyl)-3-(4-((5R,7R)-7-hydroxy-5-methyl-6,7-dihydro-5H-cyclopenta[d]pyrimidin-4-yl)piperazin-1-yl)-3-oxopropyl)amino)ethyl)-3-(2-(2-(2-((2-(2,6-dioxopiperidin-3-yl)-1,3-dioxoisoindolin-4-yl)amino)ethoxy)ethoxy)ethoxy)propanamide] | effective in suppressing both AKT protein level and AKT activity |
| C[C@@H]1C[C@@H](O)c2ncnc(N3CCN(C(=O)[C@H](CNCCNC(=O)CCOCCOCCOCCOCCNc4cccc5c4C(=O)N(C4CCC(=O)NC4=O)C5=O)c4ccc(Cl)cc4)CC3)c21 (stereo partly drawn) [XF048-3, N-(2-(((S)-2-(4-chlorophenyl)-3-(4-((5R,7R)-7-hydroxy-5-methyl-6,7-dihydro-5H-cyclopenta[d]pyrimidin-4-yl)piperazin-1-yl)-3-oxopropyl)amino)ethyl)-1-((2-(2,6-dioxopiperidin-3-yl)-1,3-dioxoisoindolin-4-yl)amino)-3,6,9,12-tetraoxapentadecan-15-amide] | effective in suppressing both AKT protein level and AKT activity |
| C[C@@H]1C[C@@H](O)c2ncnc(N3CCN(C(=O)[C@H](CNCCNC(=O)CCOCCOCCOCCOCCOCCNc4cccc5c4C(=O)N(C4CCC(=O)NC4=O)C5=O)c4ccc(Cl)cc4)CC3)c21 (stereo partly drawn) [XF048-4, N-(2-(((S)-2-(4-chlorophenyl)-3-(4-((5R,7R)-7-hydroxy-5-methyl-6,7-dihydro-5H-cyclopenta[d]pyrimidin-4-yl)piperazin-1-yl)-3-oxopropyl)amino)ethyl)-1-((2-(2,6-dioxopiperidin-3-yl)-1,3-dioxoisoindolin-4-yl)amino)-3,6,9,12,15-pentaoxaoetadecan-18-amide] | effective in suppressing both AKT protein level and AKT activity |
| C[C@@H]1C[C@@H](O)c2ncnc(N3CCN(C(=O)[C@H](CNCCC(=O)NCCCCCCCNc4cccc5c4C(=O)N(C4CCC(=O)NC4=O)C5=O)c4ccc(Cl)cc4)CC3)c21 (stereo partly drawn) [XF048-5, 3-(((S)-2-(4-chlorophenyl)-3-(4-((5R,7R)-7-hydroxy-5-methyl-6,7-dihydro-5H-cyclopenta[d]pyrimidin-4-yl)piperazin-1-yl)-3-oxopropyl)amino)-N-(7-((2-(2,6-dioxopiperidin-3-yl)-1,3-dioxoisoindolin-4-yl)amino)heptyl)propanamide] | effective in suppressing both AKT protein level and AKT activity |
| C[C@@H]1C[C@@H](O)c2ncnc(N3CCN(C(=O)[C@H](CNCCC(=O)NCCOCCOCCNc4cccc5c4C(=O)N(C4CCC(=O)NC4=O)C5=O)c4ccc(Cl)cc4)CC3)c21 (stereo partly drawn) [XF048-7, 3-(((S)-2-(4-chlorophenyl)-3-(4-((5R,7R)-7-hydroxy-5-methyl-6,7-dihydro-5H-cyclopenta[d]pyrimidin-4-yl)piperazin-1-yl)-3-oxopropyl)amino)-N-(2-(2-(2-((2-(2,6-dioxopiperidin-3-yl)-1,3-dioxoisoindolin-4-yl)amino)ethoxy)ethoxy)ethyl) propanamide] | effective in suppressing both AKT protein level and AKT activity |
| C[C@@H]1C[C@@H](O)c2ncnc(N3CCN(C(=O)[C@H](CNCCC(=O)NCCOCCOCCOCCNc4cccc5c4C(=O)N(C4CCC(=O)NC4=O)C5=O)c4ccc(Cl)cc4)CC3)c21 (stereo partly drawn) [XF048-8, 3-(((S)-2-(4-chlorophenyl)-3-(4-((5R,7R)-7-hydroxy-5-methyl-6,7-dihydro-5H-cyclopenta[d]pyrimidin-4-yl)piperazin-1-yl)-3-oxopropyl)amino)-N-(2-(2-(2-(2-((2-(2,6-dioxopiperidin-3-yl)-1,3-dioxoisoindolin-4-yl)amino)ethoxy)ethoxy)ethoxy)ethyl)propanamide] | effective in suppressing both AKT protein level and AKT activity |
| Cc1ncsc1-c1ccc(CNC(=O)[C@@H]2C[C@@H](O)CN2C(=O)[C@@H](NC(=O)COCC(=O)N2CCN(CC[C@H](NC(=O)C3(N)CCN(c4ncnc5[nH]ccc45)CC3)c3ccc(Cl)cc3)CC2)C(C)(C)C)cc1 [XF050-5, 4-amino-N-((S)-1-(4-chlorophenyl)-3-(4-(2-(2-(((S)-1-((2S,4R)-4-hydroxy-2-((4-(4-methylthiazol-5-yl)benzyl)carbamoyl)pyrrolidin-1-yl)-3,3-dimethyl-1-oxobutan-2-yl)amino)-2-oxoethoxy)acetyl)piperazin-1-yl)propyl)-1-(7H-pyrrolo[2,3-d]pyrimidin-4-yl)piperidine-4-carboxamide] | effective in suppressing both AKT protein level and AKT activity |
